Experimental data taken from publication PMC10674160, “Synthesis and Preclinical Evaluation of Radiolabeled [^103Ru]BOLD-100” (Pharmaceutics, 2023).

Test: Tissue distribution in CT26 allograft bearing Balb/c mice (ICP-MS for 3a, gamma counting for 3b)
Assay type: in vivo
Experimental: UV/Vis spectra were recorded on a Hitachi U-2000 Dual Beam spectrophotometer. Sample activities were measured on an ISOMED 2010 dose calibrator. For centrifugation during synthesis, a Fisherbrand^TM Mini-Centrifuge from Fisher Scientific was used. Radioactive organ samples were measured on Perkin Elmer Wizard^2 gamma counter. Non-radioactive organ samples were prepared, and the ruthenium content was quantified with ICP-MS. The exact procedure including instrument information can be found in the Supplementary Materials.
For the evaluation of organ distribution, CT26 cells (5 × 10^5 in serum-free medium) were injected subcutaneously into the right flank of Balb/c mice. Animals were controlled for distress development every day and tumor size was assessed regularly using caliper measurements. CT26 cells were inoculated 10 days prior to drug application. Tumor volume was calculated using the formula: (length × width^2); the tumors reached a size of about 500 mm^3. Animals were treated once intravenously (i.v.) via tail-vein injection with 3a or 3b at a dose of 30 mg/kg (dissolved in 0.9% NaCl, 0.6 mg/100 µL/20 g mouse) and a specific activity of 0.64–1.36 MBq/mg for compound 3b. The mice were anesthetized and sacrificed by cervical fracture 4, 24, 48 and 72 h p.i., with n ≥ 2 (3a) and n ≥ 3 (3b) for each time point. Samples of tumor, liver, kidney, muscle, heart, lung, spleen, pancreas, stomach, colon, small intestine, brain, bone, and blood were collected from each mouse. After clotting at RT, serum was isolated from the collected blood samples by centrifugation at 3000 rpm for 10 min twice and stored together with the collected tissue samples at −20 °C. Finally, the ruthenium content was quantified by ICP-MS in the case of the non-radioactive BOLD-100 (3a) and via gamma counting for [^103Ru]BOLD-100 (3b).
An Agilent 7800 ICP-MS (Agilent Technologies, Tokyo, Japan) was being employed, which was equipped with an Agilent SPS 4 autosampler (Agilent Technologies, Tokyo, Japan) and a MicroMist nebulizer at a sample uptake rate of approx. 0.2 mL/min. The Agilent MassHunter software package (Workstation Software, Version C.01.04, 2018) was used for data evaluation. The instrumental parameters […]
Reference source not found..
Ta ble S1: Instrumental parameters for the ICP-MS measurements […]
Spray chamber Scott double-pass
Spraying chamber temp. 2°C
Nebulizer gas 1.06 L min−1
Auxiliary gas 0.90 L min−1
The instrumental limit of quantification (LOQ) was determined at the start of the measurement by […]
LOQ = blank average + 10*STD
Blank corrections were performed for all the samples. Robustness was ensured by tuning the ICP-MS on a daily basis, by using an internal standard (115In) and measuring calibration standards for each […]
Ultrapure water (18.2 MΩ cm, ELGA Water purification system, Purelab Ultra MK 2, UK or 18.2 MΩ cm, Milli-Q Advantage, Darmstadt, Germany), HNO3 (≥69%, Rotipuran Supra, Carl Roth, Karlsruhe, Germany) and H2O2 (30%, Suprapur, Merck, Darmstadt, Germany) were used for all dilutions for ICP-MS measurements. The Ru standard solution was purchased from Labkings (Hilversum, The Netherlands).
For the digestion, approx. 25–50 mg of each organ sample were weighed into PFA-tubes, with 2 mL HNO3 and 100 µL H2O2 being added. The solutions were then placed on a hot plate and heated up for 6 hours using a temperature program with a maximum temperature of 200 °C. After cooling down, the liquids were transferred directly to 15 mL tubes with the remaining solution being removed from the PFA tubes by washing twice with 4 mL ultrapure water, resulting in a final volume of about 10 mL. By writing down the total weight of the resulting liquid, the dilution factor could be calculated.

[1] = Tumor, 24 h p.i., 30 mg/kg i.v.

Compound: [Cl][Ru]([Cl])([Cl])[Cl].[Na+].c1ccc2[nH]ncc2c1.c1ccc2[nH]ncc2c1 [3b, [^103Ru]sodium trans-[tetrachloridobis(indazole)ruthenate(III)]]
- tumor/organ ratio Blood cells (Blood cells, 4 h): 0.4 ± 0.1
- %ID/g tissue Blood cells (Blood cells, 4 h p.i., 30 mg/kg i.v.): 11.98 ± 2.26 %ID/g tissue
- %ID/g tissue Blood cells (Blood cells, 24 h p.i., 30 mg/kg i.v.): 3.41 ± 0.97 %ID/g tissue
- %ID/g tissue Blood cells (Blood cells, 48 h p.i., 30 mg/kg i.v.): 2.94 ± 1.32 %ID/g tissue
- %ID/g tissue Blood cells (Blood cells, 72 h p.i., 30 mg/kg i.v.): 2.19 ± 0.96 %ID/g tissue
- tumor/organ ratio Bones (4 h): 3.4 ± 0.5
- %ID/g tissue Bones (4 h p.i., 30 mg/kg i.v.): 1.34 ± 0.30 %ID/g tissue
- tumor/organ ratio Bones (24 h): 5.4 ± 0.6
- %ID/g tissue Bones (24 h p.i., 30 mg/kg i.v.): 1.19 ± 0.29 %ID/g tissue
- tumor/organ ratio Bones (48 h): 7.0 ± 0.8
- %ID/g tissue Bones (48 h p.i., 30 mg/kg i.v.): 0.90 ± 0.24 %ID/g tissue
- tumor/organ ratio Bones (72 h): 4.9 ± 1.7
- %ID/g tissue Bones (72 h p.i., 30 mg/kg i.v.): 1.00 ± 0.15 %ID/g tissue
- tumor/organ ratio Brain (4 h): 10.7 ± 3.3
- %ID/g tissue Brain (4 h p.i., 30 mg/kg i.v.): 0.46 ± 0.20 %ID/g tissue
- tumor/organ ratio Brain (24 h): 51.9 ± 4.4
- %ID/g tissue Brain (24 h p.i., 30 mg/kg i.v.): 0.12 ± 0.02 %ID/g tissue
- tumor/organ ratio Brain (48 h): 53.3 ± 14.3
- %ID/g tissue Brain (48 h p.i., 30 mg/kg i.v.): 0.13 ± 0.05 %ID/g tissue
- tumor/organ ratio Brain (72 h): 54.3 ± 15.1
- %ID/g tissue Brain (72 h p.i., 30 mg/kg i.v.): 0.09 ± 0.05 %ID/g tissue
- %ID/g tissue Colon (4 h p.i., 30 mg/kg i.v.): 3.89 ± 0.96 %ID/g tissue
- %ID/g tissue Colon (24 h p.i., 30 mg/kg i.v.): 1.88 ± 0.37 %ID/g tissue
- %ID/g tissue Colon (48 h p.i., 30 mg/kg i.v.): 2.34 ± 0.72 %ID/g tissue
- %ID/g tissue Colon (72 h p.i., 30 mg/kg i.v.): 2.19 ± 0.77 %ID/g tissue
- tumor/organ ratio Fat (4 h): 5.1 ± 2.1
- tumor/organ ratio Fat (24 h): 10.3 ± 2.1
- tumor/organ ratio Fat (48 h): 13.3 ± 5.0
- tumor/organ ratio Fat (72 h): 8.6 ± 3.5
- tumor/organ ratio Heart (4 h): 0.8 ± 0.2
- %ID/g tissue Heart (4 h p.i., 30 mg/kg i.v.): 5.93 ± 1.10 %ID/g tissue
- tumor/organ ratio Heart (24 h): 2.0 ± 0.2
- %ID/g tissue Heart (24 h p.i., 30 mg/kg i.v.): 3.24 ± 0.73 %ID/g tissue
- tumor/organ ratio Heart (48 h): 2.1 ± 0.2
- %ID/g tissue Heart (48 h p.i., 30 mg/kg i.v.): 2.98 ± 0.41 %ID/g tissue
- tumor/organ ratio Heart (72 h): 1.5 ± 0.4
- %ID/g tissue Heart (72 h p.i., 30 mg/kg i.v.): 3.12 ± 0.84 %ID/g tissue
- tumor/organ ratio Kidneys (4 h): 0.4 ± 0.1
- %ID/g tissue Kidneys (4 h p.i., 30 mg/kg i.v.): 12.98 ± 2.87 %ID/g tissue
- tumor/organ ratio Kidneys (24 h): 0.5 ± 0.1
- %ID/g tissue Kidneys (24 h p.i., 30 mg/kg i.v.): 12.55 ± 0.74 %ID/g tissue
- tumor/organ ratio Kidneys (48 h): 0.5 ± 0.1
- %ID/g tissue Kidneys (48 h p.i., 30 mg/kg i.v.): 11.79 ± 2.66 %ID/g tissue
- %ID/g tissue Kidneys (72 h p.i., 30 mg/kg i.v.): 13.14 ± 5.56 %ID/g tissue
- tumor/organ ratio Liver (4 h): 0.2 ± 0.2
- %ID/g tissue Liver (4 h p.i., 30 mg/kg i.v.): 24.41 ± 3.17 %ID/g tissue
- tumor/organ ratio Liver (24 h): 0.5 ± 0.1
- %ID/g tissue Liver (24 h p.i., 30 mg/kg i.v.): 13.83 ± 3.38 %ID/g tissue
- tumor/organ ratio Liver (48 h): 0.4 ± 0.1
- %ID/g tissue Liver (48 h p.i., 30 mg/kg i.v.): 14.54 ± 2.69 %ID/g tissue
- tumor/organ ratio Liver (72 h): 0.4 ± 0.1
- %ID/g tissue Liver (72 h p.i., 30 mg/kg i.v.): 12.26 ± 2.85 %ID/g tissue
- %ID/g tissue Lung (4 h p.i., 30 mg/kg i.v.): 9.77 ± 1.75 %ID/g tissue
- %ID/g tissue Lung (24 h p.i., 30 mg/kg i.v.): 5.89 ± 3.04 %ID/g tissue
- %ID/g tissue Lung (48 h p.i., 30 mg/kg i.v.): 5.08 ± 1.93 %ID/g tissue
- %ID/g tissue Lung (72 h p.i., 30 mg/kg i.v.): 4.47 ± 2.10 %ID/g tissue
- %ID/g tissue Muscle (4 h p.i., 30 mg/kg i.v.): 1.05 ± 0.14 %ID/g tissue
- %ID/g tissue Muscle (24 h p.i., 30 mg/kg i.v.): 0.57 ± 0.19 %ID/g tissue
- %ID/g tissue Muscle (48 h p.i., 30 mg/kg i.v.): 0.60 ± 0.16 %ID/g tissue
- %ID/g tissue Muscle (72 h p.i., 30 mg/kg i.v.): 0.65 ± 0.17 %ID/g tissue
- %ID/g tissue Pancreas (4 h p.i., 30 mg/kg i.v.): 3.75 ± 1.07 %ID/g tissue
- %ID/g tissue Pancreas (24 h p.i., 30 mg/kg i.v.): 1.74 ± 0.39 %ID/g tissue
- %ID/g tissue Pancreas (48 h p.i., 30 mg/kg i.v.): 2.50 ± 1.33 %ID/g tissue
- %ID/g tissue Pancreas (72 h p.i., 30 mg/kg i.v.): 2.01 ± 0.75 %ID/g tissue
- tumor/organ ratio Serum (4 h): 0.2 ± 0.0
- %ID/g tissue Serum (4 h p.i., 30 mg/kg i.v.): 28.02 ± 4.87 %ID/g tissue
- tumor/organ ratio Serum (24 h): 0.8 ± 0.1
- %ID/g tissue Serum (24 h p.i., 30 mg/kg i.v.): 8.57 ± 3.37 %ID/g tissue
- tumor/organ ratio Serum (48 h): 1.3 ± 0.4
- %ID/g tissue Serum (48 h p.i., 30 mg/kg i.v.): 5.31 ± 2.78 %ID/g tissue
- tumor/organ ratio Serum (72 h): 1.4 ± 0.3
- %ID/g tissue Serum (72 h p.i., 30 mg/kg i.v.): 3.63 ± 1.78 %ID/g tissue
- %ID/g tissue Small intestine (4 h p.i., 30 mg/kg i.v.): 5.49 ± 1.12 %ID/g tissue
- %ID/g tissue Small intestine (24 h p.i., 30 mg/kg i.v.): 2.49 ± 0.76 %ID/g tissue
- %ID/g tissue Small intestine (48 h p.i., 30 mg/kg i.v.): 2.54 ± 0.95 %ID/g tissue
- %ID/g tissue Small intestine (72 h p.i., 30 mg/kg i.v.): 1.92 ± 0.47 %ID/g tissue
- %ID/g tissue Spleen (4 h p.i., 30 mg/kg i.v.): 4.63 ± 0.61 %ID/g tissue
- %ID/g tissue Spleen (24 h p.i., 30 mg/kg i.v.): 3.92 ± 0.66 %ID/g tissue
- %ID/g tissue Spleen (48 h p.i., 30 mg/kg i.v.): 6.01 ± 2.98 %ID/g tissue
- %ID/g tissue Spleen (72 h p.i., 30 mg/kg i.v.): 5.08 ± 1.56 %ID/g tissue
- %ID/g tissue Stomach (4 h p.i., 30 mg/kg i.v.): 2.88 ± 0.82 %ID/g tissue
- %ID/g tissue Stomach (24 h p.i., 30 mg/kg i.v.): 1.34 ± 0.22 %ID/g tissue
- %ID/g tissue Stomach (48 h p.i., 30 mg/kg i.v.): 1.60 ± 0.36 %ID/g tissue
- %ID/g tissue Stomach (72 h p.i., 30 mg/kg i.v.): 1.69 ± 0.64 %ID/g tissue
- %ID/g tissue Tumor (Tumor, 4 h p.i., 30 mg/kg i.v.): 4.49 ± 1.03 %ID/g tissue
- %ID/g tissue Tumor [1]: 6.39 ± 1.44 %ID/g tissue
- tumor uptake (highest level) [1]: 6.4 %ID/g
- %ID/g tissue Tumor (Tumor, 48 h p.i., 30 mg/kg i.v.): 6.19 ± 1.26 %ID/g tissue
- %ID/g tissue Tumor (Tumor, 72 h p.i., 30 mg/kg i.v.): 4.77 ± 1.68 %ID/g tissue
